Data from patent publication US20260115267A1, “METHODS OF USING ANTI-EGF ANTIBODIES TO AUGMENT THE ACTIVITY OF BRAF AND KRAS INHIBITORS” (In3Bio Ltd., priority 2021, published 2026).

Tests used:
[1] = system: HT29 cells; test: Emergence of resistance to encorafenib in HT29 cells (FIGS. 5-8); type: cell-based
Experimental: FIGS. 5A-B are graphs that show the emergence of resistance to Encorafenib in the HT29 cell line across an incubation time of 3 weeks and measured by the percentage of cell viability. Cells were treated with 5 μM Encorafenib (FIG. 5A) or 10 μM Encorafenib (FIG. 5B) and incubated with EGF at 0.0 ng/mL, 0.1 ng/mL, Ing/mL, and 10 ng/mL.
FIGS. 6A-B are graphs that show the emergence of resistance to Encorafenib in the HT29 cell line across an incubation time of 15 weeks and measured by the percentage of cell viability.
FIGS. 7A-B are graphs that show the emergence of resistance to Encorafenib in the HT29 cell line across an incubation time of 15 weeks and measured by the percentage of cell viability. […] All tests were conducted at 1.0 ng/ml EGF
FIGS. 8A-B are graphs that show the emergence of resistance to 10 μM Encorafenib in the HT29 cell line with an incubation time of 90 days and measured by the percentage of tumor cell-free wells.
The effect of cells incubated with 5 μM encorafenib and treated with different concentrations of EGF were tested for cell viability during 3 weeks of incubation.
Next, the effects on cells incubated with 0.1 ng/mL EGF were tested.
The effects on cells incubated with 1.0 ng/mL EGF were tested over 15 weeks. The same conditions were repeated as in FIGS. 6A-B with the only difference being the 10-fold increase in EGF (FIG. 7A).
Lastly, the effects of HT29 cells incubated with 0.1 ng/ml and 1.0 ng/mLEGF were tested over a course of 90 days (FIGS. 8A-B).

[2] = system: pEGFR(Tyr1068), pPRAS40(Thr 246) in HT29 cells; test: Western blot of total and phosphorylated EGFR and PRAS40 in HT29 cells with EGF, 2 hours (FIG. 4); type: cell-based; conditions: cetuximab 1/75, encorafenib 0.05 μM
Description: C in the first lane stands for control, non-treated cell line sample. The second lane is the same control cell receiving EGF.
C in the first lane stands for control, non-treated cell line sample. Second lane is same control cell receiving EGF.

[3] = clinical data, BRAF V600E mutation-positive advanced melanoma; cited from earlier work
[4] = system: EGFR-mut NSCLC cell lines; conditions: cited from earlier work
[5] = 10 μM versus 5 μM encorafenib, EGF 0.0-10 ng/mL, 3 weeks

Question: Which “growth of positive cells (emergence of resistance)” value ([1]; 0.1 ng/mL EGF, encorafenib 10 μM, 15 weeks) does the source give for `COC(=O)N[C@@H](C)CNc1nccc(-c2cn(C(C)C)nc2-c2cc(Cl)cc(NS(C)(=O)=O)c2F)n1` [Encorafenib] here?
Answer: allows the growth of positive cells to a much greater extent

Question: And the “positive growth (emergence of resistance)” value ([1]; 1.0 ng/mL EGF, 15 weeks)?
Answer: resistance

Question: What about the “proliferation / percentage of viable cells (positive wells)” value [1, 5] of the same molecule?
Answer: substantially lower

Question: And the “time point at which resistance began” value [1, 5]?
Answer: earlier time point

Question: And the “proliferation / percentage of viable cells (positive wells)” value ([1]; 10 μM versus 5 μM encorafenib, EGF 0.0-10 ng/mL, 3 weeks, listed as encorafenib)?
Answer: lower proliferation of cells than with 5 μM encorafenib, but not by much

Question: And the “inhibition of pPRASO” value [2]?
Answer: did not inhibit

Question: Which “time to occurrence of resistance” value [3] does the source give for `CC(C)(C)c1nc(-c2cccc(NS(=O)(=O)c3c(F)cccc3F)c2F)c(-c2ccnc(N)n2)s1` [dabrafenib, Dabrafenib] here?
Answer: within six to seven months

Question: Which “antiproliferative effects of the TKI when EGF is present” value [4] does the source give for `C=CC(=O)Nc1cc(Nc2nccc(-c3cn(C)c4ccccc34)n2)c(OC)cc1N(C)CCN(C)C` [osimertinib] here?
Answer: significantly reduced
